The nature of series [1]: AUC (0 to infinity) in po dosed rat. The series is classed as ADME, organism-based. The following applies: in vivo.
Series [2] is described as follows: Toxicity in BALB/c nude mouse xenografted with human MKN-45 cells assessed as body weight loss at 10 mg/kg, po administered once daily for 21 days. The following applies: in vivo, 504 h, time 21 day. Type of series: organism-based. A general note: A xenograft is tissue or cells of one species grown in another, often human tumour cells in immunodeficient mice.
The nature of series [3]: Half-life in Wistar rat at 20 mg/kg, po measured after 24 hrs by UPLC-MS/MS analysis. Type of series: ADME, organism-based. The following applies: in vivo.
The test system of series [4] is MKN-45. The series can be described thus: Induction of c-MET degradation in human MKN-45 cells assessed as residual activity at 100 nM incubated for 24 hrs by Western blot analysis (reference value: 100 %). The series is classed as cell-based. For orientation: In western blotting, separated proteins are transferred to a membrane and probed.
Series [5] is described as follows: Toxicity in BALB/c nude mouse xenografted with human MKN-45 cells assessed as effect on kidney morphology at 10 mg/kg, po administered once daily for 21 days by H and E staining based analysis. Type of series: organism-based. The following applies: in vivo, 504 h, time 21 day.
Series [6] can be described thus: Toxicity in BALB/c nude mouse xenografted with human MKN-45 cells assessed as effect on heart morphology at 10 mg/kg, po administered once daily for 21 days by H and E staining based analysis. Type of series: organism-based. The following applies: in vivo, 504 h, time 21 day.
Series [7] is described as follows: Toxicity in BALB/c nude mouse xenografted with human MKN-45 cells assessed as effect on spleen morphology at 10 mg/kg, po administered once daily for 21 days by H and E staining based analysis. The series is classed as organism-based. The following applies: in vivo, 504 h, time 21 day.
Series [8] can be described thus: Toxicity in BALB/c nude mouse xenografted with human MKN-45 cells assessed as effect on liver morphology at 10 mg/kg, po administered once daily for 21 days by H and E staining based analysis. The series is classed as organism-based. The following applies: in vivo, 504 h, time 21 day.
Series [9] in a line: Toxicity in BALB/c nude mouse xenografted with human MKN-45 cells assessed as effect on lung morphology at 10 mg/kg, po administered once daily for 21 days by H and E staining based analysis. Type of series: organism-based. The following applies: in vivo, 504 h, time 21 day.
Series [10] in a line: Cmax in po dosed rat. Type of series: ADME, organism-based. The following applies: in vivo.
The nature of series [11]: Tmax in Wistar rat at 20 mg/kg, po measured after 24 hrs by UPLC-MS/MS analysis. Type of series: ADME, organism-based. The following applies: in vivo.
Series [12] concerns the target T1, Protein cereblon/Hepatocyte growth factor receptor (Homo sapiens, UniProt P08581+Q96SW2). Put plainly: PROTAC activity at CRBN/c-MET in human MKN-45 cells assessed as induction of c-MET degradation at 1000 nM incubated for 24 hrs by Western blot analysis. Type of series: cell-based.
Target sequence in this assay (P08581 25-1390 limits assumed): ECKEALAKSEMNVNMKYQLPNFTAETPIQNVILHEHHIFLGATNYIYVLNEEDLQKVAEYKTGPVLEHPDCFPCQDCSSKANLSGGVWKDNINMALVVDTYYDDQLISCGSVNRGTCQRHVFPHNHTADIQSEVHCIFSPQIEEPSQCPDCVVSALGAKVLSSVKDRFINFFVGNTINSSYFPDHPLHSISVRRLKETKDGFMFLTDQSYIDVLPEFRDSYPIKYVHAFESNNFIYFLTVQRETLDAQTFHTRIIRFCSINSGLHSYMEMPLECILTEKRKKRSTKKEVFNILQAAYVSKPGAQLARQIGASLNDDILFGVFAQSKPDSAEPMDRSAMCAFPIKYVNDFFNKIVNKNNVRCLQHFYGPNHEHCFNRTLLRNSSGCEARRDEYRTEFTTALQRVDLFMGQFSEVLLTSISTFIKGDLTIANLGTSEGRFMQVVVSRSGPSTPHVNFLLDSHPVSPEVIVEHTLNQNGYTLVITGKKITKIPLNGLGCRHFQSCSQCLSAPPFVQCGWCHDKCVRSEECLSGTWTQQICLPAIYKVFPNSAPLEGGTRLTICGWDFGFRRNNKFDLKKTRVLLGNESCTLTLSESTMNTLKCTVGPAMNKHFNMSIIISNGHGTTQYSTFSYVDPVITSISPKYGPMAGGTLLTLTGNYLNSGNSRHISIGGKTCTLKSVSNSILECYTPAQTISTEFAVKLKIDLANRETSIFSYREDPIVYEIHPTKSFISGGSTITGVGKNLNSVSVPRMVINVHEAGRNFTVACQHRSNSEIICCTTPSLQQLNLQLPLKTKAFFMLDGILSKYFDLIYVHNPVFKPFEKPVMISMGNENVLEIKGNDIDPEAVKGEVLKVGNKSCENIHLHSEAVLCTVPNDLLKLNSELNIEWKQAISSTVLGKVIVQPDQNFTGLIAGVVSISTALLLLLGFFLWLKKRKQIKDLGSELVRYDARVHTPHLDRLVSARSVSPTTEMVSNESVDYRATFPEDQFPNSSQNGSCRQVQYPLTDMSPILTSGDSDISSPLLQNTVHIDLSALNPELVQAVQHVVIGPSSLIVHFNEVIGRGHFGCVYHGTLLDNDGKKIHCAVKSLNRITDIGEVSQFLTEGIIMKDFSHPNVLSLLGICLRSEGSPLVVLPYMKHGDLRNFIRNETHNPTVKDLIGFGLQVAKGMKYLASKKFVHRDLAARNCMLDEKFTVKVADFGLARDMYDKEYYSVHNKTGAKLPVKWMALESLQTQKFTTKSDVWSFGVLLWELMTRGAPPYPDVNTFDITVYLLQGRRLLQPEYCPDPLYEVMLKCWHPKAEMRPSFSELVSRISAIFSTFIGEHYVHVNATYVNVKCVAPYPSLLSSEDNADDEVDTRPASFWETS
Target sequence in this assay (Q96SW2 whole entry partner): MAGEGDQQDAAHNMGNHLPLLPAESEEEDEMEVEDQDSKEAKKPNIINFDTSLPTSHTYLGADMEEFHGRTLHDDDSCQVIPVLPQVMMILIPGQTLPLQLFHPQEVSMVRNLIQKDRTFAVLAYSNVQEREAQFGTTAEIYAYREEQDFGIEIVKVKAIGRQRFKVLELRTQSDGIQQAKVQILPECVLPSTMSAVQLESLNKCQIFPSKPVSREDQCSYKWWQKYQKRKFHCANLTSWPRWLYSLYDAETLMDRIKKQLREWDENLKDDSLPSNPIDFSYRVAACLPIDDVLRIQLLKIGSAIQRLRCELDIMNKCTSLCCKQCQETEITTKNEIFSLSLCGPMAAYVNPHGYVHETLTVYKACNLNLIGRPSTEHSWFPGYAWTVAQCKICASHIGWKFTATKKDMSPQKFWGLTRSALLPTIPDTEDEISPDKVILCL
The subject of series [13] is MKN-45. Put plainly: Antiproliferative activity against human MKN-45 cells incubated for 72 hrs by CCK8 assay. The series is classed as functional, cell-based. The following applies: MKN-45, 72 h. (Tetrazolium assays rely on reduction of a dye to a coloured formazan, in cell work by metabolically active cells.)
The target of series [14] is T1, Protein cereblon/Hepatocyte growth factor receptor. The series can be described thus: PROTAC activity at CRBN/c-MET in human MKN-45 cells assessed as induction of c-MET degradation at 3.125 to 50 nM by Western blot analysis. Type of series: cell-based. The following applies: dose 3.125-50 nM.
Target sequence in this assay (P08581 25-1390 limits assumed): as the sequence (P08581 25-1390 limits assumed) above
Target sequence in this assay (Q96SW2 whole entry partner): as the sequence (Q96SW2 whole entry partner) above
Series [15] concerns the target T2, von Hippel-Lindau disease tumor suppressor/Hepatocyte growth factor receptor (Homo sapiens, UniProt P08581+P40337). The series can be described thus: PROTAC activity at VHL/c-MET in human MKN-45 cells assessed as induction of c-MET degradation at 100 to 1000 nM incubated for 24 hrs by Western blot analysis relative to control. The series is classed as cell-based. The following applies: dose 100-1000 nM.
Target sequence in this assay (P40337 whole entry partner): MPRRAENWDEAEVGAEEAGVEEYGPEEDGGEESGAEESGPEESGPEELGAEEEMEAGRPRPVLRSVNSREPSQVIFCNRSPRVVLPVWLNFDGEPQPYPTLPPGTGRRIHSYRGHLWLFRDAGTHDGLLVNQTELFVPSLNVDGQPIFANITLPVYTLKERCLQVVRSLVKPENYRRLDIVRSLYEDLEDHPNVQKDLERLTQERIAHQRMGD
Target sequence in this assay (P08581 25-1390 limits assumed): as the sequence (P08581 25-1390 limits assumed) above

The target in series [16] is T2, von Hippel-Lindau disease tumor suppressor/Hepatocyte growth factor receptor. The series can be described thus: PROTAC activity at VHL/c-MET in human MKN-45 cells assessed as induction of c-MET degradation by measuring residual activity at 100 nM incubated for 24 hrs by Western blot analysis (reference value: 100 %). Type of series: cell-based.
Target sequence in this assay (P40337 whole entry partner): as the sequence (P40337 whole entry partner) above
Target sequence in this assay (P08581 25-1390 limits assumed): as the sequence (P08581 25-1390 limits assumed) above
The target is the same in series [17]. The series can be described thus: PROTAC activity at VHL/c-MET (unknown origin). The series is classed as protein.
Target sequence in this assay (P08581 whole entry): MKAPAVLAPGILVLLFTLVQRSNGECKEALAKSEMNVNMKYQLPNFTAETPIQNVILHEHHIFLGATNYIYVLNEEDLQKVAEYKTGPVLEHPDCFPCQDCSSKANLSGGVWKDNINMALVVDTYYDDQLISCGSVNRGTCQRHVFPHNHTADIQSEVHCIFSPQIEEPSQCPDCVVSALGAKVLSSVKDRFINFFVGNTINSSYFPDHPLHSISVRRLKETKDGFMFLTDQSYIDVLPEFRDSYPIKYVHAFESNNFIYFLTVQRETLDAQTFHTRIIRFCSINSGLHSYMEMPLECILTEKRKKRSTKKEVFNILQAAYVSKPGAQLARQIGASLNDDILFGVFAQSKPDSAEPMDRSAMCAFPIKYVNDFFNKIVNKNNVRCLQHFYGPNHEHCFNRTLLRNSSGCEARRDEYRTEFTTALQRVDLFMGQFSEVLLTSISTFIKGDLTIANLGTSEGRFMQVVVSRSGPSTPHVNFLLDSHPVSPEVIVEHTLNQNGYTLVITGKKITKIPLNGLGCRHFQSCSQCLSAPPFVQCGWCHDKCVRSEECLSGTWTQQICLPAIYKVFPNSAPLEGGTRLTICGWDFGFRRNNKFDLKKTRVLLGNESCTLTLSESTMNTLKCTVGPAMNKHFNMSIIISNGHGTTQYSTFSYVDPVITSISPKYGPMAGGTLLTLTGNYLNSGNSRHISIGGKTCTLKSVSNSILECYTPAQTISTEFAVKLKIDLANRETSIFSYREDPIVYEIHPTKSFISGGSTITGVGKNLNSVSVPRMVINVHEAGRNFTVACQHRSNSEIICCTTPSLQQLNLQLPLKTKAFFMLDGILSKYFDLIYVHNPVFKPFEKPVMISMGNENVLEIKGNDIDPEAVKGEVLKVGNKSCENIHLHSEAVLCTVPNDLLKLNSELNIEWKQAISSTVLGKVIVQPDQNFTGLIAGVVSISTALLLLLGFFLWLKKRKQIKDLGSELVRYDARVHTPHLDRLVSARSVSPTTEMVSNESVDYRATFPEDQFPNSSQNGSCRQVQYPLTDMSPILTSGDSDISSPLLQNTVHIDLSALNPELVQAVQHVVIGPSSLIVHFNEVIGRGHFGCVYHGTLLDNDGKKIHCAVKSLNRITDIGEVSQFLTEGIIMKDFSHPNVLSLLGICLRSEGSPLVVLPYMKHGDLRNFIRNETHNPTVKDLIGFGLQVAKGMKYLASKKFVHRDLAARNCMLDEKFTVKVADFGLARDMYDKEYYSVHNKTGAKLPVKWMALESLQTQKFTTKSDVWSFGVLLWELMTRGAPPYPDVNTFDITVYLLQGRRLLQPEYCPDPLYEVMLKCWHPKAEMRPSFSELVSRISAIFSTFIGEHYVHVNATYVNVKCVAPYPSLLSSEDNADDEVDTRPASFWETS
Target sequence in this assay (P40337 whole entry): as the sequence (P40337 whole entry partner) above
Series [18] deals with T1, Protein cereblon/Hepatocyte growth factor receptor. The series can be described thus: PROTAC activity at CRBN/c-MET in human MKN-45 cells assessed as induction of c-MET degradation incubated for 72 hrs by Western blot analysis. Type of series: cell-based.
The test system of series [19] is MKN-45. Put plainly: Downregulation of SLC7A1 protein level in human MKN-45 cells by MS-based quantitative proteomics analysis. Type of series: functional, cell-based.
Series [20] has as its target T2, von Hippel-Lindau disease tumor suppressor/Hepatocyte growth factor receptor. The series can be described thus: PROTAC activity at VHL/c-MET in human MKN-45 cells assessed as induction of c-MET degradation at 6.25 to 100 nM incubated for 24 hrs by Western blot analysis. The series is classed as cell-based. The following applies: dose 6.25-100 nM.
Target sequence in this assay (P40337 whole entry partner): as above
Target sequence in this assay (P08581 25-1390 limits assumed): as the sequence (P08581 25-1390 limits assumed) above
Series [21] relates to MKN-45. The series can be described thus: Upregulation of PDCD4 protein level in human MKN-45 cells by MS-based quantitative proteomics analysis. Type of series: functional, cell-based.
Series [22] concerns the target von Hippel-Lindau disease tumor suppressor/Importin subunit alpha-1 (Homo sapiens) (UniProt P52292+P40337). Put plainly: PROTAC activity at VHL/KPNA2 in human MKN-45 cells assessed as induction of c-MET degradation at 6.25 to 100 nM incubated for 24 hrs by Western blot analysis. The series is classed as cell-based. The following applies: dose 6.25-100 nM.
In series [23] the test system is MKN-45. Put plainly: Downregulation of KPNA2 protein level in human MKN-45 cells by MS-based quantitative proteomics analysis. Type of series: functional, cell-based.
Series [24] has as its system MKN-45. The series can be described thus: Downregulation of HMGCS1 protein level in human MKN-45 cells by MS-based quantitative proteomics analysis. The series is classed as functional, cell-based.
Series [25] concerns MKN-45. Put plainly: Downregulation of prothymosin-alpha protein abundance in human MKN-45 cells by MS-based quantitative proteomics analysis. The series is classed as functional, cell-based.
The subject of the next series is HCC1954. The series can be described thus: Antiproliferative activity against human HCC1954 cells incubated for 72 hrs by MTT assay. The series is classed as functional, cell-based. The following applies: HCC1954, 72 h.

Calls of active or inactive are those of the source. The calls are words filed in the database; no cut-off is given here.

This is an account of results in ChEMBL document CHEMBL6120971 (J Med Chem, 2024).

Consider `CNC(=O)c1ccc(-c2cnc3ncc(Cc4ccc5ncccc5c4)n3n2)cc1F` [CAPMATINIB], for which the AUC(0-inf) (as a rule, total exposure, with the tail of the curve extrapolated) in [1] was 10400 ng·h/mL. Moreover, the Activity entry in series [2] is “Non-toxic”; in the series with MKN-45 [4], 112%; in [5], “Non-toxic”; in [6], “Non-toxic”; in series [7] it was “Non-toxic”; in series [8], “Non-toxic”. In addition, the Activity result in series [9] is given as “Non-toxic”. In addition, in series [3], the half-life (in general, how long it takes for the measured level to halve) is 4.09 h. Moreover, the concentration in series [10] peaked (Cmax) at 3820 ng/mL. For the same molecule, in [11], the Tmax (as a rule, the time from dosing to the highest level) was 0.5 h.
On to `CN1CCC(COc2cnc(-c3cccc(Cn4nc(-c5cccc(C#N)c5)ccc4=O)c3)nc2)CC1`, for which, in the series with MKN-45 [4], the Activity was 107%.
Turning to `O=C(COc1cccc2c1C(=O)N(C1CCC(=O)NC1=O)C2=O)NCCCCCCCCNC(=O)c1ccc(-c2cnc3ncc(Cc4ccc5ncccc5c4)n3n2)cc1F` (stereo not given), in [12], the outcome was inactive. For the same molecule, the IC50 – broadly, the point on the concentration scale where inhibition reaches its midpoint – with MKN-45 [13] came out at 15.3 nM.
Consider `CN1C(=O)CCC(N2C(=O)c3ccc(N4CCN(CC5CCN(C(=O)c6ccc(-c7cnc8ncc(Cc9ccc%10ncccc%10c9)n8n7)cc6F)CC5)CC4)cc3C2=O)C1=O` (stereo not given), for which the result in series [14] was inactive. In addition, half-maximal inhibition in the series on MKN-45 [13] (IC50) required 73.5 nM.
For the molecule `Cc1ncsc1-c1ccc([C@H](C)NC(=O)[C@@H]2C[C@@H](O)CN2C(=O)[C@@H](NC(=O)CCCCCCCNC(=O)c2ccc(-c3cnc4ncc(Cc5ccc6ncccc6c5)n4n3)cc2F)C(C)(C)C)cc1`, the IC50 in the series with MKN-45 [13] was found to be 52.3 nM. Moreover, the figures for the Activity in series [15] and in series [16] were above 80% and 19%, respectively.
Consider `Cc1ncsc1-c1ccc([C@H](C)NC(=O)[C@@H]2C[C@@H](O)CN2C(=O)[C@@H](NC(=O)CCCCCCC(=O)N2CCC(COc3cnc(-c4cccc(Cn5nc(-c6cccc(C#N)c6)ccc5=O)c4)nc3)CC2)C(C)(C)C)cc1`, for which half-maximal inhibition in the series with MKN-45 [13] (IC50) required 35.5 nM. For the same molecule, in series [16], the Activity came out at 64%.
Consider `COc1cc2c(Oc3ccc(NC(=O)C4(C(=O)Nc5ccc(F)cc5)CC4)cc3F)ccnc2cc1OCCCOCCCOCCC(=O)N[C@H](C(=O)N1C[C@H](O)C[C@H]1C(=O)NCc1ccc(-c2scnc2C)cc1)C(C)(C)C`, for which, in series [17], the DC50 is above 10 nM.
As for `C[C@@H](Oc1cc(-c2cnn(C3CCN(C(=O)CCCCCCCOc4cccc5c4C(=O)N(C4CCC(=O)NC4=O)C5=O)CC3)c2)cnc1N)c1c(Cl)ccc(F)c1Cl` (stereo not given in full), 347 nM corresponded to half-maximal inhibition with MKN-45 [13] (IC50). Besides, the DC50 in series [18] was above 100 nM.
In turn, `Cc1ncsc1-c1ccc([C@H](C)NC(=O)[C@@H]2C[C@@H](O)CN2C(=O)[C@@H](NC(=O)CCCCCNC(=O)c2ccc(-c3cnc4ncc(Cc5ccc6ncccc6c5)n4n3)cc2F)C(C)(C)C)cc1` displayed an IC50 in the series on MKN-45 [13] of 74.9 nM. The Activity in series [16] was 68%.
In the case of `O=C(COc1cccc2c1C(=O)N(C1CCC(=O)NC1=O)C2=O)NCCCCCCCCCCNC(=O)c1ccc(-c2cnc3ncc(Cc4ccc5ncccc5c4)n3n2)cc1F` (stereo not given), the outcome in series [12] was inactive. In the series with MKN-45 [13], this molecule showed an IC50 of 27.3 nM.
On to `Cc1ncsc1-c1ccc([C@H](C)NC(=O)[C@@H]2C[C@@H](O)CN2C(=O)[C@@H](NC(=O)CCCCCCCCC(=O)N2CCC(n3cc(-c4cnc(N)c(O[C@H](C)c5c(Cl)ccc(F)c5Cl)c4)cn3)CC2)C(C)(C)C)cc1`, for which the outcome (in the series on MKN-45 [19]; in [20]; in the series with MKN-45 [21]; in series [22]; in the series on MKN-45 [23]) was Active. Also, the IC50 in the series with MKN-45 [13] turned out to be 70.7 nM. Moreover, in series [16], the Activity was determined as 64%.
On to `Cc1ncsc1-c1ccc([C@H](C)NC(=O)[C@@H]2C[C@@H](O)CN2C(=O)[C@@H](NC(=O)CCCCCCCCC(=O)N2CCC(COc3cnc(-c4cccc(Cn5nc(-c6cccc(C#N)c6)ccc5=O)c4)nc3)CC2)C(C)(C)C)cc1`, for which, in the series on MKN-45 [13], the IC50 turned out to be 102 nM. Further, the result in the series with MKN-45 [24], in the series with MKN-45 [21] and with MKN-45 [25] was Active. Also, in series [16], the Activity stood at 50%.
As to `C[C@@H](Oc1cc(-c2cnn(C3CCNCC3)c2)cnc1N)c1c(Cl)ccc(F)c1Cl`, the Activity in the series on MKN-45 [4] was 110%.
`Cc1ncsc1-c1ccc([C@H](C)NC(=O)[C@@H]2C[C@@H](O)CN2C(=O)[C@@H](NC(=O)CCCCCCCCCNC(=O)c2ccc(-c3cnc4ncc(Cc5ccc6ncccc6c5)n4n3)cc2F)C(C)(C)C)cc1` yielded an IC50 with MKN-45 [13] of 20.5 nM. Further, in series [16], the Activity worked out at 22%.
Molecule `COc1cc2c(Oc3ccc(NC(=O)C4(C(=O)Nc5ccc(F)cc5)CC4)cc3)ccnc2cc1OCCCOCCCOCCC(=O)N[C@H](C(=O)N1C[C@H](O)C[C@H]1C(=O)NCc1ccc(-c2scnc2C)cc1)C(C)(C)C` gave a DC50 in series [17] above 1110 nM. In addition, the IC50 in the series on HCC1954 came out at 6700 nM.
